# Legend:
# vagal sensory neurons [1] = assay: pERK immunofluorescence of vagal ganglia after microgavage; format: in vivo, zebrafish
# Experimental: To quantify vagal activity by pERK staining, published protocol with slight modification (Randlett et al., 2015) was used. Zebrafish larvae were quickly collected by funneling through a 0.75 mm cell strainer and dropped into a 5 mL petri dish containing ice cold fix buffer (2.5% formalin+0.25% Triton 100). Larvae were fixed overnight at 4° C., then washed 3 times in PT (PBS+0.3% Triton 100), treated with 150 mM Tris-HCl (PH=9) for 15 mins at 70° C., washed with PT and digested with 0.05% trypsin-EDTA on ice for 45 mins. Following digestion, samples were then washed with PT and transferred into block solution [PT+1% bovine serum albumin (BSA, Fisher)+2% normal goat serum (NGS, Sigma)+1% dimethyl sulfoxide (DMSO)]. The primary antibodies [pERK (Cell signaling); tERK (Cell signaling); GFP (Aves Lab)] were diluted in block solution (1:150 for pERK; 1:150 for tERK and 1:500 for GFP) and samples were incubated in 100 μl of primary antibody overnight at 4° C. Following primary antibody incubation, samples were then washed with PT and incubated with secondary antibody overnight at 4° C. Samples were then washed with PBS, mounted in 1% LMA and imaged using a Zeiss 780 upright confocal microscope.
# For delivering bacterial or chemicals specifically to the intestine, the established microgavage technique (Cocchiaro and Rawls, 2013) was adopted. […]
# vagal sensory neurons [2] = assay: In vivo calcium imaging of vagal sensory ganglia after microgavage; set-up: species or system zebrafish; conditions: WT; enteric microgavage ~8 nl, AITC 100 mM, indole 1 mM, IAld 1 mM
# Experimental: For delivering bacterial or chemicals specifically to the intestine, the established microgavage technique (Cocchiaro and Rawls, 2013) was adopted. Zebrafish were anesthetized with 1 mg/mL α-Bungarotoxin (α-BTX) and the gavage procedure was performed as previously described using microinjection station (Cocchiaro and Rawls, 2013). For bacteria gavage experiments, 1 ml of overnight bacterial culture was harvested, pelleted, washed with PBS and resuspended in 100 ul PBS.˜8 nl was then delivered into the zebrafish intestine using microgavage. The gavaged zebrafish was then transferred into egg water and mounted in 1% LMA for imaging. For chemical gavage experiments, ˜8 nl of AITC (100 mM), indole (1 mM) and IAld (1 mM) was gavaged into the intestine.
# Tg(neurod1:Gcamp6f); Tg(neurod1:TagRFP) zebrafish were used to record vagal sensory ganglia calcium activity in vivo. Zebrafish were anesthetized with 1 mg/mL α-Bungarotoxin (α-BTX) and gavaged with chemical compounds or bacteria as described (Naumann et al., 2016). Zebrafish larvae were mounted in 1% LMA and imaged under a Zeiss 780 upright confocal microscope. Z-stack images of the entire vagal ganglia were collected as serial images at 10 mins/frame and processed in FIJI. Individual vagal sensory neurons were identified and the Gcamp6f to TagRFP fluorescence ratios of individual vagal sensory neurons were calculated.
# zebrafish EECs (Trpa1) = assay: In vivo EEC calcium, Tg(neurod1:Gcamp6f) zebrafish; conditions: trpa1b-dependent
# Experimental: To record in vivo EEC activity using the Tg(neurod1:Gcamp6f) system, a published protocol with slight modification (Ye et al., 2019) was used. In brief, unanesthetized zebrafish larvae were gently mounted in 3% methylcellulose. Excess water was removed and zebrafish larvae were gently positioned with right side up. Zebrafish were then moved onto an upright Leica M205 FA fluorescence stereomicroscope equipped with a Leica DFC 365FX camera. The zebrafish larvae were allowed to recover for 2 mins before 100 μL of test agent was pipetted directly in front of the mouth region. Images were then recorded every 10 seconds. The data shown in FIG. 2O-R, depicting the EEC responses to E. tarda stimulation, were obtained by mounting unanesthetized zebrafish larvae in 1% low melting agarose. A window (5×5 mm) was cut to expose the head region of the zebrafish. 10 μL of E. tarda culture [˜10^9 Colony Forming Unit (CFU)] were delivered at the zebrafish mouth area. Images were recorded every 10 secs for 20 mins. Image processing and analysis were performed using FIJI software. Time-lapse fluorescence images were first aligned to correct for experimental drift using the plugin “align slices in stack.” Normalized correlation coefficient matching and bilinear interpolation methods for subpixel translation were used for aligning slices (Tseng et al., 2012). The plugin “rolling ball background subtraction” with the rolling ball radius=10 pixels was used to remove the large spatial variation of background intensities. The Gcamp6f fluorescence intensity in the intestinal region was then calculated for each time point. The ratio of maximum fluorescence (Fmax) and the initial fluorescence (F0) was used to measure EEC calcium responses.
# For EEC Trpa1 activation using the Optovin platform, zebrafish larvae were treated with 10 μM Optovin overnight. Following Optovin treatment, unanesthetized zebrafish were mounted in 1% LMA and imaged under a 780 upright Zeiss confocal microscope using 20× water objective lenses. For all the experiments, the mid-intestine region was imaged (FIG. 10D). The intestinal epithelium was selected as the region of interest (ROI) (FIG. 10A). Serial images were obtained at 1 s/frame. A 405 nm pulse of light was applied to the ROI at 1 pulse/10 s. For some experiments (FIG. 7D-F, FIG. 10B-G), the images were obtained at 10 s/frame. When measuring Optovin effects on intestinal motility in ret−/−, sox10−/− or tph1b−/− zebrafish larvae, embryos were collected from heterozygous zebrafish. ret−/− zebrafish were identified by lack of ENS and deflated swim bladder (Knight et al., 2011), sox10−/− zebrafish were identified by lack of pigment (Rolig et al., 2017), and tph1b−/− zebrafish were identified by PCR-based genotyping (Tornini et al., 2017).
# To determine whether Optovin-UV or ChR2 was sufficient to activate EECs, Tg(neurod1:Gcamp6f) zebrafish were used. […] The Gcamp6f signal was recorded with 488 nm laser intensity less than 0.5. The zebrafish intestinal motility is quantified through recorded image series of zebrafish intestine using the method similar as previously described (Ganz et al., 2018). […] When calculating the mean velocity, only the mean velocity magnitude was calculated, which therefore doesn't account for the movement direction. The MTrackJ FIJI plugin was used to quantify the mean velocity magnitude (Meijering et al., 2012).
# zebrafish EECs = assay: In vivo EEC activity, Tg(neurod1:CaMPARI) zebrafish
# From the text: CaMPARI undergoes permanent green-to-red photoconversion (PC) under 405 nm light when calcium is present. This permanent conversion records the calcium activity for all areas illuminated by PC-light. Red fluorescence intensity correlates with calcium activity during photoconversion (Fosque et al., 2015). In the Tg(neurod1:CaMPARI) zebrafish line, the CaMPARI (calcium-modulated photoactivatable ratiometric integrator) transgene is expressed under control of the −5 kb promoter cloned from the zebrafish neurod1 locus. CaMPARI mRNA is transcribed and the CaMPARI protein is expressed in cells that are able to activate the neurod1 promoter. There are multiple cell types in the zebrafish body that are sufficient to activate the neurod1 promoter, including all EECs in the intestine (Ye et al., 2019). CaMPARI protein is a calcium indicator protein that binds calcium and converts from green fluorescence to red fluorescence in the presence of UV light. This protein is engineered and described in detail in a previous publication (Fosque et al., 2015). This transgenic model was used to measure the level of intracellular calcium in EECs. […]
# human ileum = assay: Amperometric measurement of 5-HT secretion, human small intestine; conditions: 50 μM HC030031
# From the text: (§1) These experiments using C57BL/6J mice were approved by the Flinders University Animal Welfare Committee (number 965-19) and human ileum tissue was collected from resected small and large intestine from patients that gave written informed consent under the approval of the Southern Adelaide Clinical Human Research Ethics Committee (number 50.07) as previous (Sun et al., 2019a). Mice were euthanized at 8 to 12 weeks by isoflurane overdose followed by cervical dislocation. The duodenum was removed and placed in Krebs solution oxygenated with 95% O2, 5% CO2. A midline incision was made along the duodenum to create a flat sheet, the section was pinned with the mucosal side up in an organ bath lined with Sylgard and containing oxygenated Krebs solution. Serotonin release was measured using amperometry. A carbon-fibre electrode (5-μm diameter, ProCFE; Dagan Corporation, Minneapolis, Minn.), was lowered above the mucosa and 400 mV potential was applied to the electrode causing oxidation of serotonin (Zelkas et al., 2015). […] The change in amplitude due to serotonin oxidation was recorded using an EPC-10 amplifier and Pulse software (HEKA Electronic, Lambrecht/Pfalz, Germany), and samples at 10 kHz and low-pass filtered at 1 kHz. Data was assessed as peak current during each treatment. Data was analyzed comparing all groups using one-way ANOVA with Tukey's post-hoc test. […]
# mouse duodenum = assay: Amperometric measurement of 5-HT secretion, mouse small intestine; conditions: 50 μM HC030031
# From the text: as §1
smiles,measurement,setting,value
"C=CCN=C=S [AITC, Allyl isothiocyanate]",Vagal activation (pERK+) in the absence of EECs,vagal sensory neurons [1]; EEC-ablated zebrafish,abrogated
same,Number of pERK+ vagal cells,"vagal sensory neurons [1]; WT, microgavage, compared to PBS",increased
same,Gcamp6f fluorescence in a subset of vagal sensory neurons,vagal sensory neurons [2],significantly increased
same,Zebrafish EEC activation (Gcamp6f fluorescence),zebrafish EECs (Trpa1),EEC activation
CC(C)c1ccc(NC(=O)Cn2cnc3c2c(=O)n(C)c(=O)n3C)cc1 [HC030031],Effect on E. tarda's ability to induce EEC activation,"zebrafish EECs; WT fish, HC030031 280 μM, 2 hours before and during E. tarda stimulation",significantly inhibited
same,"Effect on indole-induced 5-HT secretion, human small intestine",human ileum,blocked
same,"Effect on indole-induced 5-HT secretion, mouse small intestine",mouse duodenum,blocked
CCCCCCCCCCCC(=O)O [laurate],Percentage of activated EECs (high red:green CaMPARI ratio),"zebrafish EECs; linoleate, oleate, laurate 1.66 mM, butyrate 2 mM, glucose 500 mM, vs water",significantly increased
